Like-named read-outs stand apart in the source and are kept apart here.
How the values were obtained:
[1] = Bisphosphonate concentration at about 90% saturation in the vehicle; type: physicochemical
Description: Compositions in various vehicles (water/ethanol or buffer/ethanol, with or without additional ingredients, water (pure aqueous)) were prepared, using each bisphosphonate at a concentration of about 90% the saturation value. For example, “90/10” denotes a 90/10 (v/v) mixture of water/ethanol; “90/10 pH6” denotes a 90/10 (v/v) mixture of phosphate buffer pH6/ethanol.
Bisphosphonate concentrations are at about 90% saturation.
Risedronate sodium is generally administered using a dose of 35 mg of anhydrous monosodium risedronate, once a week. Advantageously, for a topical dose of 35 mg, this corresponds to 1.5 g of a solution according to one embodiment (risedronate at 90% saturation in phosphate-buffered hydroalcoholic solution 90/10 […], i.e. anhydrous monosodium risedronate at 22.4 mg/g). The same topical dose of 35 mg, corresponds to 0.8 g of another embodiment (risedronate at 90% saturation in pure water, i.e. anhydrous monosodium risedronate at 45.3 mg/g). […] The in vitro condition of application—i.e. 10 μl/1.77 cm^2—mimics an in vivo situation wherein the formulation is applied as a thin layer of 1-2 mg of formulation/cm^2.

ovariectomized rats [2] = settings: OVX rats
Text: (§1) Ovariectomized rats are a recognised model for bone loss study, as the surgical operation causes an estrogen deficiency which results in rapid bone loss. See Guideline on the evaluation of medicinal products in the treatment of primary osteoporosis, CPMP/EWP/552/95 available for download from the European Medicine Agency at: http://www.emea.europa.eu/.
(§2) 13-week old rats (Sprague-Dawley, virgin female), 8 per group, were sham operated (group 1-control) or ovariectomized (OVX) (groups 2 to 7) on the day before the first day of treatment.
Femur and L2-L5 lumbar vertebrae block Bone Mineral Density (BMD) were calculated from in vivo Dual-energy X-ray Absorptiometry (DXA) measurement at the same time points with an Hologic apparatus. BMD was also measured ex vivo on dissected femur and L4 vertebrae at the end of the treatment period.

[3] = rat
[4] = rat, published data, Lin et al.; cited from earlier work
ovariectomized rats [5] = settings: OVX rats; remark: listed apart in the source
Text: as §1, §2
Urinary deoxypyridinoline (D-pyr) and creatinine (Creat) were determined at baseline, week 4 and week 8. The ratio of D-Pyr to Creat is a recognised marker of bone resorption. See, e.g., Christenson RH “Biochemical markers of bone metabolism: an overview” Clin Biochem 1997, 30(8), 573-593.

[6] = In vitro dermal absorption, static diffusion cell (Franz cell)
[7] = phosphate-buffered hydroalcoholic solution 90/10
[8] = group 4: 4.46 mg/kg daily topical (reduced from 15.6 mg/kg/d after 2 weeks)
[9] = group 5: 15.6 mg/kg weekly topical
[10] = group 7: 10.85 mg/kg twice weekly topical (reduced from 15.6 mg/kg after 2 weeks)
[11] = buffered solution, compared to 100% phosphate buffer solution, FIG. 10 / FIG. 11

NCCCC(O)(P(=O)(O)O)P(=O)(O)O [Sodium Alendronate]
concentration at 90% saturation [1, 7]: 10.4 mg/g | concentration at 90% saturation ([1]; pure water): 28.09 mg/g

O=P([O-])(O)C(O)(Cc1cccnc1)P(=O)(O)O.[Na+] [Sodium Risedronate]
concentration at 90% saturation [1, 7]: 22.4 mg/g | concentration at 90% saturation ([1]; pure water): 45.3 mg/g

NCCCC(O)(P(=O)(O)O)P(=O)(O)O [alendronate, 4-amino-1-hydroxybutylidene-1,1-bisphosphonic acid]
BMD results compared with subcutaneous injection (group 3) or control (group 1) (ovariectomized rats [2]; topical groups 4-7, 8 weeks): similar | BMD in the distal metaphysis (part of femur) compared with the subcutaneous injection group (group 3) (ovariectomized rats [2]; topically treated groups 4 and 7): statistically higher | bone recovery after dermal administration ([3]; data from Example 4): 0.2% | delivered dose contained in gauze wrap removed at 24 h ([3]; dermal administration): about 10% | delivered dose contained in washing medium and swabs ([3]; dermal administration, 24 h): about 46% | dermally delivered alendronate not absorbed ([3]; gauze wrap + washing medium and swabs at 24 h): 56% | bone recovery after oral administration [4]: 0.9% | D-pyr/Creat, Week 4 (ovariectomized rats [5]; group 3: 2 μg/kg daily sc inj): 118 ± 64 | D-pyr/Creat, Week 8 (ovariectomized rats [5]; group 3: 2 μg/kg daily sc inj): 72 ± 13 | D-pyr/Creat, Week 4 (ovariectomized rats [5]; [8]): 58 ± 13 | D-pyr/Creat, Week 8 (ovariectomized rats [5]; [8]): 42 ± 15 | D-pyr/Creat, Week 4 (ovariectomized rats [5]; [9]): 138 ± 60 | D-pyr/Creat, Week 8 (ovariectomized rats [5]; [9]): 67 ± 26 | D-pyr/Creat, Week 4 (ovariectomized rats [5]; [10]): 88 ± 52 | D-pyr/Creat, Week 8 (ovariectomized rats [5]; [10]): 57 ± 24

O=P(O)(O)C(O)(Cc1cccnc1)P(=O)(O)O [risedronate, 1-hydroxy-2-(3-pyridyl)ethylidene-1,1-bisphosphonic acid]
effect of glycerine on the amount recovered in the receptor fluid and the dermis ([6]; FIG. 12 / FIG. 13): does not significantly increase | effect of propylene glycol (PG) on the amount recovered [6, 11]: does not significantly affect | effect of urea on the amount recovered in the receptor fluid and the skin/dermis [6, 11]: increases | effect of menthol on the amount recovered in the receptor fluid and dermis ([6]; menthol at 90% of saturating concentration in 90/10 phosphate buffer/ethanol, compared to pure phosphate buffer solution, FIG. 6 / FIG. 7): does not increase | amount recovered in the receptor fluid and the dermis with oleic acid, compared to the 100% phosphate buffer solution ([6]; oleic acid at 90% of maximum solubility in 90/10 phosphate buffer/ethanol with Tween 80 at 4.5%, FIG. 12 / FIG. 13): lower | effect of urea on the amount recovered in the receptor fluid and the skin ([6]; urea incorporated in phosphate buffer solution, FIG. 8 / FIG. 9): neutral effect | recovery in the receptor fluid and the dermis at 24 hrs (crossing of the skin) ([6]; water/alcohol compositions, FIG. 1 / FIG. 2): does cross the skin | effect of the increase in alcohol content on absorption, as percentage of the dose applied ([6]; water/alcohol ratios, FIG. 1 / FIG. 2): slightly increased

— patent US20080182822A1, “Liquid Pharmaceutical Compositions Comprising a Bisphosphonate Compound” (Besins Healthcare SA, priority 2006, published 2008)
